Assay results: US9322066B2, “Predictors for cancer treatment” (priority 2011, dated 2016)

Tested on: relapsed or refractory, rituximab-naive or -sensitive follicular B-cell NHL
Experiment: Progression-free survival (PFS), Vc-R vs rituximab study, by biomarker
Type: in vivo, human
Source text: Non-Hodgkin lymphoma (NHL) encompasses several unique malignant lymphoid disease entities that vary in clinical behavior, morphologic appearance, immunologic, and molecular phenotype. […] A randomized, open-label, active-controlled, multicenter, multinational, prospective study to compare the efficacy and safety of the combination of bortezomib and rituximab (Vc-R) to single-agent rituximab in subjects who have relapsed or refractory, rituximab-naive or -sensitive follicular B-cell NHL was performed.
Subjects were centrally randomized to Treatment Groups A (Vc-R) or B (rituximab) in a 1:1 ratio taking into account the following stratification factors: • Follicular Lymphoma International Prognostic Index (FLIPI) score (low [0 or 1 factor], intermediate [2 factors], high [≧3 factors]); • Prior rituximab therapy (yes, no); • Time since last dose of anti-lymphoma therapy (≦1 year, >1 year); • Region (United States/Canada, European Union, Rest of World).
The following clinical endpoints were included in the analysis within each treatment group and an overall comparison was made with the biomarker-related endpoints: Progression-free survival, defined as the interval between the date of randomization and the date of progressive disease (PD) or death, whichever is first reported in the ITT population; overall survival; overall response rate (complete response [CR]+CR unconfirmed [CRu]+partial response [PR]); overall CR rate (CR+CRu); duration of response; time to next anti-lymphoma therapy; and treatment free interval.
For single-marker association analyses and pair-wise comparisons, a log rank test and Cox proportional hazard model was utilized for assessments of PFS, TTP, and OS between the treatment groups. Kaplan-Meier curves were utilized to estimate the distribution differences between groups in the time-to-event analyses. Comparison of the response rates between the treatment groups was conducted using the Fishers exact test. Single-marker association analyses were stratified by the covariates.
For pair-wise comparison analysis, biomarker pairs were formed by combinations of two markers. A log rank test was utilized for assessments of PFS, TTP, and OS between the treatment groups in the subpopulation defined by biomarker pairs. Kaplan-Meier curves were utilized to estimate the distribution differences between groups in the time-to-event analyses. Comparison of the response rates between the treatment groups was conducted using the Fishers exact test. Methods of Analysis for the multiple biomarker comparison models can be found in section 4.6.
The stratified log rank test and Cox proportional hazard model was utilized for assessments of PFS between the treatment groups. The Kaplan-Meier method was to be used to estimate the distribution of overall PFS for each treatment group in the biomarker population, and overall; stratified by expression level, SNP, or mutation (or covariate groups as noted above). The hazard ratio and 95% confidence interval was based on a stratified Cox's proportion hazard model with treatment as the explanatory variable. Analyses were done for the population overall and by treatment group, and each of these analyses were also stratified by the following factors if sufficient sample size existed: […]

## rituximab
20S % NUCLEAR STAINING 30-90 + 20S INTENSITY CYTOPLASMIC SIGNAL >=3+, Excluded
  Median PFS (Vc − R vs R): 347 days
20S % NUCLEAR STAINING 30-90 + 20S INTENSITY CYTOPLASMIC SIGNAL >=3+, Selected
  Median PFS (Vc − R vs R): 280 days
20S % NUCLEAR STAINING 30-90 + 20S INTENSITY CYTOPLASMIC SIGNAL >=3+, Total
  Median PFS (Vc − R vs R): 345 days
AGEGRP <=65 + CD68 POSITIVE FOLLICULAR 0-50, Excluded
  Median PFS (Vc-R vs R): 427 days
AGEGRP <=65 + CD68 POSITIVE FOLLICULAR 0-50, Selected
  Median PFS (Vc-R vs R): 275 days
AGEGRP <=65 + CD68 POSITIVE FOLLICULAR 0-50, Total
  Median PFS (Vc-R vs R): 346 days
AGEGRP <=65 + CD68 POSITIVE PERIFOLLICULAR 0-50, Excluded
  Median PFS (Vc − R vs R): 351 days
AGEGRP <=65 + CD68 POSITIVE PERIFOLLICULAR 0-50, Selected
  Median PFS (Vc − R vs R): 281 days
AGEGRP <=65 + CD68 POSITIVE PERIFOLLICULAR 0-50, Total
  Median PFS (Vc − R vs R): 346 days
AGEGRP <=65 + P27 % NUCLEI POSITIVE 0-70, Excluded
  Median PFS (Vc − R vs R): 348 days
AGEGRP <=65 + P27 % NUCLEI POSITIVE 0-70, Selected
  Median PFS (Vc − R vs R): 279 days
AGEGRP <=65 + P27 % NUCLEI POSITIVE 0-70, Total
  Median PFS (Vc − R vs R): 345 days
Biomarker Negative (all subjects without the pair), N = 238
  PFS median: 12.5 months
Biomarker Positive (PSMB P11A heterozygote and CD68 Low), N = 118
  PFS median: 9.1 months
CD68 OVERALL POSITIVE 0-25
  PFS median: 10.6 mo
CD68 OVERALL POSITIVE 26-50
  PFS median: 9.3 mo
CD68 POSITIVE FOLLICULAR 0-25
  PFS median: 9.3 mo
CD68 POSITIVE FOLLICULAR 0-50 + CD68 POSITIVE PERIFOLLICULAR 0-50, Excluded
  Median PFS (Vc − R vs R): 351 days
CD68 POSITIVE FOLLICULAR 0-50 + CD68 POSITIVE PERIFOLLICULAR 0-50, Selected
  Median PFS (Vc − R vs R): 282 days
CD68 POSITIVE FOLLICULAR 0-50 + CD68 POSITIVE PERIFOLLICULAR 0-50, Total
  Median PFS (Vc − R vs R): 346 days
CD68 POSITIVE FOLLICULAR 0-50 + P65 % POSITIVE CYTOPLASMIC SIGNAL >90%, Excluded
  Median PFS (Vc − R vs R): 486 days
CD68 POSITIVE FOLLICULAR 0-50 + P65 % POSITIVE CYTOPLASMIC SIGNAL >90%, Selected
  Median PFS (Vc − R vs R): 279 days
CD68 POSITIVE FOLLICULAR 0-50 + P65 % POSITIVE CYTOPLASMIC SIGNAL >90%, Total
  Median PFS (Vc − R vs R): 346 days
CD68 POSITIVE FOLLICULAR 26-50
  PFS median: 9.1 mo
CD68 Pos Follic (0-50) & P11A[C/G]**, first line (P 0.0025)
  PFS median: 8.5 mo
CD68 Pos Follic (0-50) & P11A[C/G]**, second line (n.s.)
  PFS median: 9.2 mo
CD68 high
  PFS: did better on rituximab alone
Excluded: 20S % NUCLEAR STAINING 30-90 and P65 % POSITIVE CYTOPLASMIC SIGNAL >90%
  Median PFS (Vc-R vs R): 419 days
Excluded: AGEGRP <=65 and CD68 OVERALL POSITIVE 0-50
  Median PFS (Vc-R vs R): 351 days
Excluded: AGEGRP <=65 and P65 % POSITIVE CYTOPLASMIC SIGNAL >90%
  Median PFS (Vc-R vs R): 414 days
Excluded: CD68 OVERALL POSITIVE 0-50 and P65 % POSITIVE C[…] >90%
  Median PFS (Vc-R vs R): 375 days
Excluded: FLIPI High and P65 % POSITIVE CYTOPLASMIC SIGNAL >90%
  Median PFS (Vc-R vs R): 378 days
Excluded: PRITUX NO and P65 % NUCLEAR STAINING 0
  Median PFS (Vc-R vs R): 346 days
Excluded: PSMB1/P11A C/G and ANNARBOR >=III
  Median PFS (Vc-R vs R): 375 days
Excluded: PSMB1/P11A C/G and P65 % NUCLEAR STAINING 0
  Median PFS (Vc-R vs R): 346 days
FLIPI High + P27 % NUCLEI POSITIVE 0-70, Excluded
  Median PFS (Vc − R vs R): 351 days
FLIPI High + P27 % NUCLEI POSITIVE 0-70, Selected
  Median PFS (Vc − R vs R): 212 days
FLIPI High + P27 % NUCLEI POSITIVE 0-70, Total
  Median PFS (Vc − R vs R): 345 days
HI Tumor BD NO & CD68 OVERALL POSITIVE: 0-50
  PFS median: 16 mo
HI Tumor BD NO & CD68 POSITIVE FOLLICULAR: 0-50
  PFS median: 13.8 mo
P65 Cytoplasmic signal >90% & 1 prior treatment*, first line (P 0.0132)
  PFS median: 10.6 mo
P65 Cytoplasmic signal >90% & 1 prior treatment*, second line (n.s.)
  PFS median: 8.9 mo
P65 INTENSITY CYTOPLASMIC SIGNAL <=1+
  PFS median: 9.3 mo
PSMB1/P11A C/G
  PFS median: 9.3 mo
PSMB1/P11A C/G & 20S % POSITIVE CYTOPLASMIC SIGNAL: >90
  PFS median: 9.5 mo
PSMB1/P11A C/G & Age group: <=65
  PFS median: 9.2 mo
PSMB1/P11A C/G & CD68 POSITIVE FOLLICULAR: 0-50
  PFS median: 9.1 mo
PSMB1/P11A C/G & CD68 POSITIVE PERIFOLLICULAR: >50
  PFS median: 9.2 mo
PSMB1/P11A C/G & PSMB5/R24C C/T
  PFS median: 7.8 mo
PSMB1/P11A C/G & Time since last Rx: >1 year
  PFS median: 10.7 mo
PSMB1/P11A C/G + 20S % NUCLEAR STAINING 30-90, Excluded
  Median PFS (Vc-R vs R): 346 days
PSMB1/P11A C/G + 20S % NUCLEAR STAINING 30-90, Selected
  Median PFS (Vc-R vs R): 275 days
PSMB1/P11A C/G + 20S % NUCLEAR STAINING 30-90, Total
  Median PFS (Vc-R vs R): 345 days
PSMB1/P11A C/G + 20S INTENSITY CYTOPLASMIC SIGNAL <=2+, Excluded
  Median PFS (Vc-R vs R): 345 days
PSMB1/P11A C/G + 20S INTENSITY CYTOPLASMIC SIGNAL <=2+, Selected
  Median PFS (Vc-R vs R): 278 days
PSMB1/P11A C/G + 20S INTENSITY CYTOPLASMIC SIGNAL <=2+, Total
  Median PFS (Vc-R vs R): 345 days
PSMB1/P11A C/G + AGEGRP <=65, Excluded
  Median PFS (Vc-R vs R): 348 days
PSMB1/P11A C/G + AGEGRP <=65, Selected
  Median PFS (Vc-R vs R): 279 days
PSMB1/P11A C/G + AGEGRP <=65, Total
  Median PFS (Vc-R vs R): 345 days
PSMB1/P11A C/G + CD68 OVERALL POSITIVE 0-50, Excluded
  Median PFS (Vc − R vs R): 348 days
PSMB1/P11A C/G + CD68 OVERALL POSITIVE 0-50, Selected
  Median PFS (Vc − R vs R): 278 days
PSMB1/P11A C/G + CD68 OVERALL POSITIVE 0-50, Total
  Median PFS (Vc − R vs R): 345 days
PSMB1/P11A C/G + P27 % NUCLEI POSITIVE 0-70, Excluded
  Median PFS (Vc-R vs R): 348 days
PSMB1/P11A C/G + P27 % NUCLEI POSITIVE 0-70, Selected
  Median PFS (Vc-R vs R): 277 days
PSMB1/P11A C/G + P27 % NUCLEI POSITIVE 0-70, Total
  Median PFS (Vc-R vs R): 338 days
PSMB1/P11A C/G + P27 SIGNAL INTENSITY >=2+, Excluded
  Median PFS (Vc-R vs R): 346 days
PSMB1/P11A C/G + P27 SIGNAL INTENSITY >=2+, Selected
  Median PFS (Vc-R vs R): 280 days
PSMB1/P11A C/G + P27 SIGNAL INTENSITY >=2+, Total
  Median PFS (Vc-R vs R): 338 days
